Read-outs that look alike come from different tables or passages of the source.
What was measured:
[1] = test system: PfNF54-s16-GFP early (I–III) stage gametocytes; experiment: Image-based gametocyte viability assay; type: cell-based, P. falciparum; conditions: Plasmodium falciparum; stages I–III, 72 h; read-out: IC50 Early-stage Gametocytes (mean ± SD)
Description: (§1) Viability assays were performed as described previously ([32], [33]) against PfNF54-s16-GFP early(I–III), late (IV–V), and mature (V) stage gametocytes. Gametocytes were assessed at the appropriate time points following gametogenesis; early stage (day 2), late stage (day 8), and mature stage (day 12). Compounds diluted in 4% DMSO were transferred into 384-well imaging plates; gametocytes prepared as described previously (35) were added, and plates were incubated for 72 h in 5% CO2, 5% O2, and 60% humidity at 37°C. After 72 h incubation, 5 µL of MitoTracker Red CMH2XRos in phosphate buffered saline (PBS) was added per well, and plates were incubated overnight. Image acquisition and analysis were undertaken on the Opera QEHS micro-plate confocal imaging system. An Acapella-based script using the CMH2XRos fluorescent signal and the GFP-designated object quantifying viable stage-dependent parasite morphology identified gametocytes. Gametocyte viability was calculated as a percentage of the positive (5 µM puromycin) and negative (0.4% DMSO) controls. IC50 values were calculated using a 4-parameter log dose, non-linear regression analysis, with sigmoidal dose response (variable slope) curve fit using GraphPad Prism (ver 4.0). No constraints were used in the curve fit. Chloroquine, artesunate, pyronaridine, pyrimethamine, dihydroartemisinin (DHA), and methylene blue were used as control compounds. Experiments were performed as two or three biological replicates in duplicate.

[2] = target: Pb-M1 (Plasmodium berghei, UniProt A0A509ATR4); experiment: Recombinant aminopeptidase fluorescence assay (H-Leu-NHMec); type: biochemical
Description: (§2) Inhibition of aminopeptidase activity assays were performed against nine aminopeptidases: the M1 alanyl and M17 leucyl aminopeptidases from P. falciparum (PfA-M1; PfA-M17), P. vivax (Pv-M1; Pv-M17), and P. berghei (Pb-M1; Pb-M17), and three human M1 homologs: LTA4H (OriGene TP307617), ERAP1 (OriGene TP314469), and ERAP2 (Creative BioMart ERAP2-304H). The Plasmodium enzymes were produced recombinantly as described previously ([16], [17]), and the human recombinant enzymes were purchased from commercial suppliers as indicated.
(§3) The concentration of H-Leu-NHMec in the assay was held constant for each enzyme and ranged from 10 to 100 µM, depending on the enzyme. Reactions were measured at 37°C in white 384-well plates in a total volume of 25 or 50 µL using a spectrofluorimeter (BMG FLUOstar) with excitation at 355 nm and emission at 460 nm. The fluorescence signal was continuously monitored until a final steady-state velocity, v, was obtained. Inhibition constants were calculated from biological triplicates made from three different protein preparations.
(§4) Substrate concentrations were selected to allow sensitive detection of enzyme activity while not exceeding the Km for each enzyme. A compound concentration range was selected to obtain a complete inhibition curve (0%–100 %) in biological triplicate. Where possible, the Ki values were calculated by plotting the initial rates versus inhibitor concentration and fitting to the Morrison equation for tight-binding inhibitors in GraphPad Prism (V.8.4.1; non-linear regression method).

[3] = target: T1, ERAP2 (Homo sapiens, UniProt Q6P179); experiment: as above; type: biochemical; conditions: for inhibition at 1.25 µM: ERAP2, 1.25 µM compound; for inhibition at 10 µM: ERAP2, 10 µM compound; for inhibition at 500 µM: ERAP2, 500 µM compound; for inhibition at 1000 µM: ERAP2, 1000 µM compound
T1 construct: purchased Creative BioMart ERAP2-304H
Description: as §2, §3, §4

[4] = target: T2, ERAP1 (Homo sapiens, UniProt Q9NZ08); experiment: as above; type: biochemical; conditions: for inhibition at 1.25 µM: ERAP1, 1.25 µM compound; for inhibition at 10 µM: ERAP1, 10 µM compound; for inhibition at 500 µM: ERAP1, 500 µM compound; for inhibition at 1000 µM: ERAP1, 1000 µM compound
T2 construct: purchased OriGene TP314469
Description: as §2, §3, §4

[5] = target: Pv-M1 (Plasmodium vivax, UniProt A5JZA9); experiment: as above; type: biochemical, P. vivax
Description: as §2, §3, §4

[6] = test system: Pf3D7; experiment: 72 h ring killing assay (SYBR Green I); type: cell-based, P. falciparum; conditions: Plasmodium falciparum, Pf3D7 ring stage
Description: Viability assays were performed as previously described ([7]). Sorbitol-synchronized Pf3D7 (a laboratory strain which is broadly sensitive to standard antimalarial drugs) at ring stages was cultured in the presence of drug serially diluted across a 96-well plate at 0.5% parasitemia and 2% hematocrit. Cultures were grown for 72 h before being placed at −80°C. After thawing, cultures were incubated with equal volumes of lysis buffer (20 mM Tris [pH 7.5], 5 mM EDTA, 0.008% [wt/vol] saponin, and 0.008% [vol/vol] Triton x-100) containing 0.2 µL/mL SYBR Green I Nucleic Acid Gel Stain (10,000× in dimethyl sulfoxide [DMSO]; Thermo Fisher). After 1 h incubation, fluorescence intensity was read on a Glomax Explorer Fully Loaded (Promega) at emission wavelengths of 500–550 nm and an excitation wavelength of 475 nm. Graphs were generated using GraphPad Prism (V.8.4.1). Parasite survival was compared with vehicle-treated cultures in three biological replicates performed in triplicate. This EC50 was used in asexual P. falciparum assays unless otherwise stated.

[7] = test system: PfNF54-s16-GFP late (IV–V) stage gametocytes; experiment: Image-based gametocyte viability assay; type: cell-based, P. falciparum; conditions: Plasmodium falciparum; stages IV–V, 72 h; read-out: IC50 Late-stage Gametocytes (mean ± SD)
Description: as §1, with “Chloroquine, artesunate, pyronaridine, pyrimethamine, dihydroartemisinin (DHA), and methylene blue were used as control compounds.” left out

[8] = test system: PfNF54-s16-GFP mature (V) stage gametocytes; experiment: Image-based gametocyte viability assay; type: cell-based, P. falciparum; conditions: Plasmodium falciparum, 72 h, read-out: IC50 Mature-stage Gametocytes (mean ± SD)
Description: as §1, with “Chloroquine, artesunate, pyronaridine, pyrimethamine, dihydroartemisinin (DHA), and methylene blue were used as control compounds.” left out

[9] = read-out: Inhibition of aminopeptidase activity

T2 sequence (Q9NZ08 whole entry): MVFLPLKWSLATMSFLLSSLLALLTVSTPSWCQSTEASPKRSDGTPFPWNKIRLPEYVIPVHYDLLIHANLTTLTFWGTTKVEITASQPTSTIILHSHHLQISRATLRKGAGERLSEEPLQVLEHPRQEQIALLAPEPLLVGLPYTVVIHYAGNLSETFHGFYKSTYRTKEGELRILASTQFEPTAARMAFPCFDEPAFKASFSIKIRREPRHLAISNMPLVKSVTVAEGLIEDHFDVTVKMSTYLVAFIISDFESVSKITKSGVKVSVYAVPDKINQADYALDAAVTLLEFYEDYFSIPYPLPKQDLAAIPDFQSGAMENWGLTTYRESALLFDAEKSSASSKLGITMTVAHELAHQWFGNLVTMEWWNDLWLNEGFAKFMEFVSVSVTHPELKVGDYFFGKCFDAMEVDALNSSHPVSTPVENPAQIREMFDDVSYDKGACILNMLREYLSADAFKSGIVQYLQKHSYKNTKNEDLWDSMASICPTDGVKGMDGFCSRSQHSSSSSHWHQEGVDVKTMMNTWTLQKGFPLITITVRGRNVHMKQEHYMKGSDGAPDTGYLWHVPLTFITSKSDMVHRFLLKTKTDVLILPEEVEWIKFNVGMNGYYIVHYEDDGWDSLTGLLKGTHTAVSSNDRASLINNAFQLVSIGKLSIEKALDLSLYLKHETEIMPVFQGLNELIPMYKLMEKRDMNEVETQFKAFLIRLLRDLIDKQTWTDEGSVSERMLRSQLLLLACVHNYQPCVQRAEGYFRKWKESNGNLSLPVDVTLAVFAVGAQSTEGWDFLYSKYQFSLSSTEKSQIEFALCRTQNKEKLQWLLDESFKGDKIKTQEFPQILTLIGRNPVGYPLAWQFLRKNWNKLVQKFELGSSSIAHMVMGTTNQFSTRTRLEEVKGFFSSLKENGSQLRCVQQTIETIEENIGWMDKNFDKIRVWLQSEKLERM
T1 sequence (Q6P179 whole entry): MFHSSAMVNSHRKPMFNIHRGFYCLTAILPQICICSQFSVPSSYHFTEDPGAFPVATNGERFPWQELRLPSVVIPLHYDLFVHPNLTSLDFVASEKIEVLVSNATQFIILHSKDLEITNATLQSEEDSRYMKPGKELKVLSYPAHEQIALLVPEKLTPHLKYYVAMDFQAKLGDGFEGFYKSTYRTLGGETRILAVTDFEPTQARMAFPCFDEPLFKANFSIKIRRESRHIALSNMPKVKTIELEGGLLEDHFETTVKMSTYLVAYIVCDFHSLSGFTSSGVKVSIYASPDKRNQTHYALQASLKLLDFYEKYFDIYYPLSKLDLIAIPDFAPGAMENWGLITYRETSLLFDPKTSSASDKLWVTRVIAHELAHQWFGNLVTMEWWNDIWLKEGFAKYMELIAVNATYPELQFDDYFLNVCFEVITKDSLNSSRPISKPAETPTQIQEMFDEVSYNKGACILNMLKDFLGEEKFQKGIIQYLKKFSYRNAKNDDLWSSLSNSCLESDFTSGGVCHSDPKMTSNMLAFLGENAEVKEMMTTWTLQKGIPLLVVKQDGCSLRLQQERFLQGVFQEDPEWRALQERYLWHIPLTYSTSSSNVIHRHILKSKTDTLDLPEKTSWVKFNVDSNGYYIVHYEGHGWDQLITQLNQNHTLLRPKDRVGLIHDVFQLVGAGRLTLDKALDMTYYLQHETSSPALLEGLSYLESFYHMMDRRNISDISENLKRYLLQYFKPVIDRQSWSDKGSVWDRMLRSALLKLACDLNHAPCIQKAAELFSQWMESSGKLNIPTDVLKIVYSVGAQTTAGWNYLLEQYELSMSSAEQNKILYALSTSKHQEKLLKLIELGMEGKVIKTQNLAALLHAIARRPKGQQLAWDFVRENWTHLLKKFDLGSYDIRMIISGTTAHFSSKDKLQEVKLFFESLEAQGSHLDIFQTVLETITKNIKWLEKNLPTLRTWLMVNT
Sequence of Pb-M1 (A0A509ATR4 entry or part of it): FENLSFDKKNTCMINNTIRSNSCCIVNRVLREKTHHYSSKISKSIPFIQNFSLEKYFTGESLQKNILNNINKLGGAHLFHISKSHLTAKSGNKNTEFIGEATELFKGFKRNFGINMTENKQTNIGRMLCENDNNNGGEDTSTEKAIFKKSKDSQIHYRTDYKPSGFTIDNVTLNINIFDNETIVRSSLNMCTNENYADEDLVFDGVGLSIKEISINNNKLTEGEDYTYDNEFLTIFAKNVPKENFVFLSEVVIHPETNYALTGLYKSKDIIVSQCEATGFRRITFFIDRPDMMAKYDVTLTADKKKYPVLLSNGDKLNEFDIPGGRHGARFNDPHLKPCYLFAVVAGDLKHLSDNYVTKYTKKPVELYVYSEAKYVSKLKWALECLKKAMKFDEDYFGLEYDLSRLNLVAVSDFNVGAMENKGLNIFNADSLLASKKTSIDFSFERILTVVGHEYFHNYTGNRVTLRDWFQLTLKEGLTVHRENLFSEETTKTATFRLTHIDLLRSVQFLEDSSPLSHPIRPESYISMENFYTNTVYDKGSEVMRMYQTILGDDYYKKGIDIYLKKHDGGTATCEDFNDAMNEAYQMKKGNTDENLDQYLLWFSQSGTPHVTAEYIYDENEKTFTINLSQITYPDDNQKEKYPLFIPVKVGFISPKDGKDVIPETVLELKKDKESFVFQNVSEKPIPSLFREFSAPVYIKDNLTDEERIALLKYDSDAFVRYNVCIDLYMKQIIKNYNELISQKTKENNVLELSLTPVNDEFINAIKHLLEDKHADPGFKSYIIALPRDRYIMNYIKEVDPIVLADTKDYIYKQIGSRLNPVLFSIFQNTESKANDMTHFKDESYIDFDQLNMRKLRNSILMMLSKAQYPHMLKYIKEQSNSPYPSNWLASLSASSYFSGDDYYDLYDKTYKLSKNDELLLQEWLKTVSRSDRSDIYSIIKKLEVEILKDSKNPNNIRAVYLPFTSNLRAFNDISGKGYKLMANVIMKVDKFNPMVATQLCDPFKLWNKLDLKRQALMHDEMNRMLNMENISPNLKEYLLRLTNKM
Sequence of Pv-M1 (A5JZA9 entry or part of it): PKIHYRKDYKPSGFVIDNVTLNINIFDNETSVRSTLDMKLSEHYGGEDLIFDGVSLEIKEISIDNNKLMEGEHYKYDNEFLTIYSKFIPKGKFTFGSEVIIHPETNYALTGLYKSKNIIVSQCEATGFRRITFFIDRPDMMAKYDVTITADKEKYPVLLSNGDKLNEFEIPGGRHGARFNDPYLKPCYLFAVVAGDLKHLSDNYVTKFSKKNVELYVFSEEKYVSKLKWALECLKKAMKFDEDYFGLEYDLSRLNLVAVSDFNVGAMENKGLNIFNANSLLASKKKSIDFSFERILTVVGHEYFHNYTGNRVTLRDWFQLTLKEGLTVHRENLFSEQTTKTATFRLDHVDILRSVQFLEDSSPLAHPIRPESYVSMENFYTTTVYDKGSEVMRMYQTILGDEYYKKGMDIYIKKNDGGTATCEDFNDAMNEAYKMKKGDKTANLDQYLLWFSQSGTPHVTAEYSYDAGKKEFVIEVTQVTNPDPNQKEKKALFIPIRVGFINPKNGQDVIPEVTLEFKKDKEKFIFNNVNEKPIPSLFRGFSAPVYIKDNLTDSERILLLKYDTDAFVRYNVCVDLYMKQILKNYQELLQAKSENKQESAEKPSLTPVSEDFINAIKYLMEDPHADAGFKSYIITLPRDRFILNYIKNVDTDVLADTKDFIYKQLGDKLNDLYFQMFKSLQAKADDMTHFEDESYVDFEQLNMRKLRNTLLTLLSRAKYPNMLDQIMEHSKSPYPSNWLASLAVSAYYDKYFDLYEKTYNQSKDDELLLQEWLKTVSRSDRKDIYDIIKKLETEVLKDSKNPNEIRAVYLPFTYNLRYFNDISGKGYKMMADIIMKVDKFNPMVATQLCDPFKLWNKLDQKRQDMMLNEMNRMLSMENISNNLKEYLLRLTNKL

SMILES | IC50 [1] [nM] | inhibition at 1.25 µM [2, 9] [%] | inhibition at 1.25 µM [3] [%] | inhibition at 10 µM [3] [%] | inhibition at 500 µM [3] [%] | inhibition at 1000 µM [3] [%] | inhibition at 1.25 µM [4] [%] | inhibition at 10 µM [4] [%] | inhibition at 500 µM [4] [%] | inhibition at 1000 µM [4] [%] | inhibition at 1.25 µM [5, 9] [%] | inhibition at 10 µM [5, 9] [%] | EC50 [6] [nM] | IC50 [7] [nM] | IC50 [8] [nM] | further results
CC(C)(C)CC(=O)NC(C(=O)NO)c1ccc(-c2cc(F)c(F)c(F)c2)cc1 (centres unmarked) [MMV1557817, N-(2-(hydroxyamino)−2-oxo-1-(3′,4′,5′-trifluoro-[1,1′-biphenyl]-4-yl)ethyl)-3,3-dimethylbutanamide] | 99 | 94 | 7 | 0 | 99.1 | 100 | 0 | 0 | 75 | 98 | 96 | 100 | 39 | 309 | 1470 | Ki [2]: 2 ± 0.2 nM; inhibition at 10 µM [2, 9]: 100%; Ki [5]: 19 nM
C[C@H]1[C@H](OC(=O)CCC(=O)O)O[C@@H]2O[C@@]3(C)CC[C@H]4[C@H](C)CC[C@@H]1[C@@]24OO3 [artesunate] | 16 ± 5 | 0 | 0 | 0 | 0 | 0 | 0 | 0 | 0 | 0 | 2.1 | 23.6 | 4 | 26 ± 2 | 51 ± 23 | inhibition at 10 µM ([2]; Pb-M1, 10 µM compound, read-out: Inhibition of aminopeptidase activity): 12.8%; inhibition at 500 µM [2, 9]: 81.3%; inhibition at 1000 µM [2, 9]: 78.2%; inhibition at 500 µM [5, 9]: 74%; inhibition at 1000 µM [5, 9]: 68.2%

— publication PMC11237774, “On-target, dual aminopeptidase inhibition provides cross-species antimalarial activity” (mBio, 2024)
